# Measurements reported in paper PMC4281105 (Journal of medicinal chemistry, 2014).
# Like-named read-outs stand apart in the source and are kept apart here. Marks after values point to notes of the source that are not given here.
# How the values were obtained:
# hRSV strain Long = assay: hRSV CPE assay; format: cell-based, human respiratory syncytial virus
# RSV = assay: viral titer; format: cell-based, human respiratory syncytial virus; conditions: for log reduction at 10 µM: human respiratory syncytial virus, read-out: viral titer reduction at 10 µM
# [1] = human respiratory syncytial virus, HEp-2, read-out: RSV CPE potency ± standard deviation EC50, HEp-2 cells, hRSV strain Long, 10-point dose response
Structure (SMILES),EC50 (hRSV strain Long; [1]),other results
"COCCCNC(=O)c1ccc(Cn2c(=O)c3ccccc3n(Cc3cccc(Br)c3)c2=O)cc1 [Compound 9, 4-((1-(3-Bromobenzyl)-2,4-dioxo-1,2-dihydroquinazolin-3(4H)-yl)methyl)-N-(3-methoxypropyl)benzamide]",2.2 ± 0.1 µM,
"CCOCCCNC(=O)c1ccc(Cn2c(=O)c3ccccc3n(Cc3ccc(C)cc3)c2=O)cc1 [Compound 24, N-(3-Ethoxypropyl)-4-((1-(4-methylbenzyl)-2,4-dioxo-1,2-dihydroquinazolin-3(4H)-yl)methyl)benzamide]",1.9 ± 0.2 µM,
"Cc1ccc(Cn2c(=O)n(Cc3ccc(C(=O)NCC4CCC4)cc3)c(=O)c3ccccc32)cc1 [Compound 30, N-(Cyclobutylmethyl)-4-((1-(4-methylbenzyl)-2,4-dioxo-1,2-dihydroquinazolin-3(4H)-yl)methyl)benzamide]",1 ± 0.08 µM,log reduction at 10 µM (RSV): 1.2
"COCCCNC(=O)c1ccc(Cn2c(=O)c3ccccc3n(Cc3ccc([N+](=O)[O-])cc3)c2=O)cc1 [Compound 15, N-(3-Methoxypropyl)-4-((1-(4-nitrobenzyl)-2,4-dioxo-1,2-dihydroquinazolin-3(4H)-yl)methyl)benzamide]",0.5 ± 0.05 µM,"EC50 (hRSV strain Long; human respiratory syncytial virus, RSV CPE, as given in abstract): 0.3 to 0.5 µM; viral titer reduction at 10 µM (RSV; compound at 10 µM): 5.6 ^f log; log reduction at 10 µM (RSV): 5.6"
"COCCCNC(=O)c1ccc(Cn2c(=O)c3ccccc3n(Cc3ccc4nonc4c3)c2=O)cc1 [Compound 20, 4-((1-(Benzo[c][1,2,5]oxadiazol-5-ylmethyl)-2,4-dioxo-1,2-dihydroquinazolin-3(4H)-yl)methyl)-N-(3-methoxypropyl)benzamide]",4.9 ± 0.7 µM,log reduction at 10 µM (RSV): 2.1
"COCCCNC(=O)c1ccc(Cn2c(=O)c3ccccc3n(Cc3ccc(F)cc3)c2=O)cc1 [Compound 12, 4-((1-(4-Fluorobenzyl)-2,4-dioxo-1,2-dihydroquinazolin-3(4H)-yl)-methyl)-N-(3-methoxypropyl)benzamide]",5.1 ± 0.4 µM,
"COCCNC(=O)c1ccc(Cn2c(=O)c3ccccc3n(Cc3ccc(C)cc3)c2=O)cc1 [Compound 28, N-(2-Methoxyethyl)-4-((1-(4-methylbenzyl)-2,4-dioxo-1,2-dihydroquinazolin-3(4H)-yl)methyl)benzamide]",2.2 ± 1.4 µM,
"Cc1ccc(Cn2c(=O)n(Cc3ccc(C(=O)NCCCOC(C)C)cc3)c(=O)c3ccccc32)cc1 [Compound 25, N-(3-Isopropoxypropyl)-4-((1-(4-methylbenzyl)-2,4-dioxo-1,2-dihydroquinazolin-3(4H)-yl)methyl)benzamide]",2 ± 0.2 µM,
"COCCCNC(=O)c1ccc(Cn2c(=O)c3ccccc3n(Cc3cc(C)on3)c2=O)cc1 [Compound 21, N-(3-Methoxypropyl)-4-((1-((5-methylisoxazol-3-yl)methyl)-2,4-dioxo-1,2 dihydroquinazolin-3(4H)-yl)methyl)benzamide]",> 50 µM,
"COCCCNC(=O)c1ccc(Cn2c(Cc3cccc(C(C)C)c3)nc3ccccc3c2=O)cc1 [Compound 51, 4-((2-(3-Isopropylbenzyl)-4-oxoquinazolin-3(4H)-yl)methyl)-N-(3-methoxypropyl) benzamide]",,"EC50 (hRSV strain Long; read-out: RSV CPE potency ± standard deviation EC50, HEp-2 cells, hRSV strain Long, 10-point dose response): > 50 µM"
"Cc1ccc(Cn2c(=O)n(Cc3ccc(C(=O)NCCCN(C)C)cc3)c(=O)c3ccccc32)cc1 [Compound 26, N-(3-(Dimethylamino)propyl)-4-((1-(4-methylbenzyl)-2,4-dioxo-1,2-dihydroquinazolin-3(4H)-yl)methyl)benzamide]",9.5 ± 0.4 µM,
"Cc1ccc(Cn2c(=O)n(Cc3ccc(C(=O)N4CCOCC4)cc3)c(=O)c3ccccc32)cc1 [Compound 31, 1-(4-Methylbenzyl)-3-(4-(morpholine-4-carbonyl)benzyl)-quinazoline-2,4(1H,3H)-dione]",> 50 µM,
"COCCCNC(=O)c1ccc(Cn2c(=O)c3ccccc3n(Cc3ccccc3Br)c2=O)cc1 [Compound 8, 4-((1-(2-Bromobenzyl)-2,4-dioxo-1,2-dihydroquinazolin-3(4H)-yl)methyl)-N-(3-methoxypropyl)benzamide]",> 50 µM,

# The next lines start with results.
EC50 (hRSV strain Long; [1]),Structure (SMILES),other results
> 50 µM,"Cc1ccc(Cn2c(=O)n(Cc3ccc(C(=O)N(C)C)cc3)c(=O)c3ccccc32)cc1 [Compound 35, N,N-Dimethyl-4-((1-(4-methylbenzyl)-2,4-dioxo-1,2-dihydroquinazolin-3(4H)-yl)methyl)benzamide]",
0.7 ± 0.03 µM,"Cc1ccc(Cn2c(=O)n(Cc3ccc(C(=O)NC(C)(C)C)cc3)c(=O)c3ccccc32)cc1 [Compound 36, N-(tert-Butyl)-4-((1-(4-methylbenzyl)-2,4-dioxo-1,2-dihydroquinazolin-3(4H)-yl)methyl)benzamide]",log reduction at 10 µM (RSV): 5.5
> 50 µM,"Cc1ccc(Cn2c(=O)n(Cc3ccc(C(=O)N4CCCC4)cc3)c(=O)c3ccccc32)cc1 [Compound 32, 1-(4-Methylbenzyl)-3-(4-(pyrrolidine-1-carbonyl)benzyl)-quinazoline-2,4(1H,3H)-dione]",
> 50 µM,"Cc1ccc(Cn2c(=O)n(Cc3ccc(C(=O)Nc4nccs4)cc3)c(=O)c3ccccc32)cc1 [Compound 41, 4-((1-(4-Methylbenzyl)-2,4-dioxo-1,2-dihydroquinazolin-3(4H)-yl)methyl)-N-(thiazol-2-yl)benzamide]",
> 50 µM,"Cc1ccc(Cn2c(=O)n(Cc3ccc(C(=O)NC4CCCCC4)cc3)c(=O)c3ccccc32)cc1 [Compound 37, N-Cyclohexyl-4-((1-(4-methylbenzyl)-2,4-dioxo-1,2-dihydroquinazolin-3(4H)-yl)methyl)benzamide]",
> 50 µM,"Cc1ccc(Cn2c(=O)n(Cc3ccc(C(=O)NCc4ccccc4)cc3)c(=O)c3ccccc32)cc1 [Compound 39, N-Benzyl-4-((1-(4-methylbenzyl)-2,4-dioxo-1,2-dihydroquinazolin-3(4H)-yl)methyl)benzamide]",
> 50 µM,"Cc1ccc(Cn2c(=O)n(Cc3ccc(C(=O)N4CCCCC4)cc3)c(=O)c3ccccc32)cc1 [Compound 33, 1-(4-Methylbenzyl)-3-(4-(piperidine-1-carbonyl)benzyl)-quinazoline-2,4(1H,3H)-dione]",
> 50 µM,"Cc1ccc(Cn2c(=O)n(Cc3ccc(C(=O)Nc4ccccc4)cc3)c(=O)c3ccccc32)cc1 [Compound 38, 4-((1-(4-Methylbenzyl)-2,4-dioxo-1,2-dihydroquinazolin-3(4H)-yl)methyl)-N-phenylbenzamide]",
> 50 µM,"COCCCNC(=O)c1ccc(Cn2c(Cc3ccc(C(C)C)cc3)nc3ccccc3c2=O)cc1 [Compound 52, 4-((2-(4-Isopropylbenzyl)-4-oxoquinazolin-3(4H)-yl)methyl)-N-(3-methoxypropyl)benzamide]",
2.2 ± 0.9 µM,"CNC(=O)c1ccc(Cn2c(=O)c3ccccc3n(Cc3ccc(C)cc3)c2=O)cc1 [Compound 34, N-Methyl-4-((1-(4-methylbenzyl)-2,4-dioxo-1,2-dihydroquinazolin-3(4H)-yl)methyl)benzamide]",
> 50 µM,"Cc1ccc(Cn2c(=O)n(Cc3ccc(C(=O)NCc4ccco4)cc3)c(=O)c3ccccc32)cc1 [Compound 40, N-(Furan-2-ylmethyl)-4-((1-(4-methylbenzyl)-2,4-dioxo-1,2-dihydroquinazolin-3(4H)-yl)methyl)benzamide]",
0.5 ± 0.06 µM,"COc1cc(NC(=O)c2ccc(Cn3c(=O)c4ccccc4n(Cc4ccc(C(C)C)cc4)c3=O)cc2)ccn1 [Compound 50, 4-((1-(4-Isopropylbenzyl)-2,4-dioxo-1,2-dihydroquinazolin-3(4H)-yl)methyl)-N-(2-methoxypyridin-4-yl)benzamide]",
